Data from patent EP2062893A1, “Fused imidazoles for cancer treatment” (Bayer Schering Pharma AG, priority 2007, dated 2009).

Legend:
Assay type in all cases: cell-based
[1] = system: phosphorylated Akt protein; assay: Cellular PI3K / Akt pathway assay (phospho-Akt Ser473 sandwich ELISA); settings: Homo sapiens; MCF7 cells, ß-Heregulin (20ng/ml) stimulation, 48h incubation
Experimental: In order to study the cellular activity of the compounds according to the present invention, an Enzyme Linked Immunosorbent Assay (ELISA)-based assay has been used specific phospho-AKT. The assay is based on a Sandwich ELISA kit (PathScan™ Phospho-Akt1 (Ser473); Cell Signaling, USA; #7160). The ELISA Kit detects endogenous levels of phosphorylated Akt protein. A phospho-Akt (Ser473) antibody (Cell Signaling, USA; #9271) has been coated onto the microwells. After incubation with cell lysates, the coated antibody captures the phosphorylated Akt protein. Following extensive washing, Akt1 monoclonal antibody (Cell Signaling, USA; #2967) is added to detect the captured phospho-Akt1 protein. HRP-linked anti-mouse antibody (HRP: horseradish peroxidase; Cell Signaling, USA; #7076) is then used to recognize the bound detection antibody. HRP substrate (= 3,3',5,5'-tetramethylbenzidine (TMB); Cell Signaling, USA; #7160) is added to develop colour. The magnitude of optical density for this developed color is proportional to the quantity of phosphorylated Akt protein. MCF7 cells (ATCC HTB-22) are seeded into 96 well fate bottom plates at a density of 10000 cells/well. 24 hours after seeding, the cells are serum starved using low-serum medium (IMEM media including 0,1% charcoal treated FCS (FCS: fetal calf serum)). […] To stimulate Akt phosphorylation, ß-Heregulin (20ng/ml ß-HRG) is added in parallel to the compounds. Wells containing unstimulated control cells (no ß-Heregulin stimulation) are incubated with or without the diluted compound. Wells containing untreated control cells (no compound) are filled with medium containing 0.5% v:v DMSO and are or are not stimulated with ß-Heregulin. Cells are harvested and lysed with brief sonification in 1x cell lysis buffer (20mM Tris (pH7.5), 150 mM NaCl, 1 mM ethylene diaminetetraacetate (EDTA), 1 mM ethylene glycolbis(2-aminoethyl)-N,N,N',N'-tetraacetic acid (EGTA), 1vol% Triton X-100, 2.5mM sodium pyrophosphate, 1 mM β-glycerolphosphate, 1 mM Na3VO4, 1µg/ml leupeptin). The lysate is centrifuged for 10 min. at 4°C and the supernatant is transferred to a new tube. 100 µl of sample diluent (0.1vol% Tween-20, 0.1vol% sodium azide in phosphate buffered saline (PBS)) are added to a microcentrifuge tube and 100 µl of cell lysate are transferred into the tube and vortexed. 100 µl of each diluted cell lysate are added to the appropriate ELISA well, and incubated overnight at 4°C. The plates are washed 4 times with 1x wash buffer (1vol% tween-20, 0.33vol% thymol, in PBS). Next 100 µl of detection antibody (Akt1 (2H10) monoclonal detection antibody; Cell Signaling, USA; #2967) are added to each well and incubation continued for 1h at 37°C. The washing procedure is repeated between each step. 100µl of secondary antibody (anti-mouse IgG HRP-linked antibody; Cell Signaling, USA; #7076) are added to each well and incubated for 30 min. at 37°C. Than, 100µl of TMB substrate (0.05% 3,3',5,5' tetramethylbenzidine, 0.1 % hydrogen peroxide, complex polypeptides in a buffered solution; Cell Signaling, USA; #7160) are added to each well and incubated for 30 min. at 25°C. Finally 100 µl of STOP solution (0.05vol% α and β unsaturated carbonyl compound) are added to each well and the plate are shaked gently. The absorbance is measured at λ =450 nm (Wallac Victor2; Perkin Elmer, USA) within 30 min. after adding the STOP solution. The analysis of the data is performed using a statistical program (Excel; Microsoft, USA). Preferred compounds show an inhibitory activity towards Akt phosphorylation below 10µM.

OvCAR3 cells = assay: Cellular proliferation / Cytotoxicity assay (Alamar Blue / Resazurin cell viability); settings: Homo sapiens, OVCAR-3, 48h incubation, read-out: Anti-proliferative / Cytotoxic activity (OvCAR3 cells)
Experimental: Wells containing untreated control cells were filled with 200 µl DMEM (Dulbecco's Modified Eagle Medium) containing 0.5vol% v:v DMSO. The cells are then incubated with the substances for 48h at 37°C in a humidified atmosphere containing 5vol% CO2. To determine the viability of the cells, 20 µl of a Resazurin solution (90mg / I) are added. […] Viabilities are expressed as % values.

phosphorylated GSK3 = assay: Cellular pGSK3 assay (phospho-GSK3 Ser9 sandwich ELISA); settings: Homo sapiens; MCF7 cells, 48h incubation, IC50 of pGSK3 inhibition
Experimental: In order to study the cellular activity of the compounds according to the present invention, an ELISA-based assay has been established for the phosphorylated protein glycogen synthetase kinase 3 (GSK3). The assay is based on a solid phase sandwich ELISA that detects endogenous levels of phosphorylated GSK3 using a phospho-GSK3 (Ser9) specific antibody (BioSource International, Inc.; Catalog #KHO0461). After incubation with cell lysates, the coated antibody captures the phosphorylated GSK3 protein. Following extensive washing, GSK3 polyclonal antibody is added to detect the captured phospho-GSK3 protein. Secondary antibody (anti-rabbit IgG-HRP) is then used to recognize the bound detection antibody. After the second incubation and washing to remove all the excess anti-rabbit IgG-HRP, a substrate solution is added, which is acted upon by the bound enzyme to produce color. The intensity of this colored product is directly proportional to the concentration of GSK-3β [pS9] present in the original specimen. MCF7 cells (ATCC HTB-22) were seeded into 96 well fate bottom plates at a density of 10000 cells/well. After 24 h 1 µl each of the compound dilutions (test compounds were dissolved as 10 mM solutions in dimethylsulfoxide (DMSO) and subsequently diluted) were added into each well of the 96 well plates and incubated for 48h at 37°C in a humidified athmosphere containing 5% CO2. Cells were harvested and lysed in cell extraction buffer (10 mM Tris, pH 7.4, 100 mM NaCl, 1 mM EDTA, 1 mM EGTA, 1 mM NaF, 20 mM Na4P2O7, 2 mM Na3VO4, 1% Triton X-100, 10vol% glycerol, 0.1vol% SDS, 0.5vol% deoxycholate, 1 mM phenylmethylsulfonylfluorid (PMSF)). The lysate were centrifuged for 10 min. at 4°C and the supernatant were transferred to a new tube. 50 µl of sample diluent (standard diluent buffer, Biosource) were added and 100 µl of cell lysate transferred into the tube and vortexed. 100 µl of each diluted cell lysate were added to the appropriate ELISA well plate and incubated for 3h at room temperature. The plates were washed 4 times with 1x wash buffer (Biosource). 50 µl of detection antibody (GSK3 (Ser9) detection antibody; BioSource) were added to each well and incubated for 30 min. at room temperature. The washing procedure was repeated between each step. 100µl of HRP-linked secondary antibody (anti-mouse IgG HRP-linked antibody) were added to each well and incubated for 30 min. at room temperature. 100µl of TMB substrate (0.05vol% 3,3',5,5' tetramethylbenzidine, 0.1vol% hydrogen peroxide, complex polypeptides in a buffered solution; Biosource) were added to each well and incubated for 30 min. at room temperature. Finally 100 µl of Stop solution (0.05vol% α and β unsaturated carbonyl compound) were added to each well and the plate were shaked gently for a few seconds. The absorbance was measured at λ = 450 nm (Wallac Victor2; Perkin Elmer, USA) within 30 min. after adding the stop solution. The analysis of the data was performed using a statistical program (Excel; Microsoft, USA) and the IC50 of pGSK3 inhibition was determined.

Q: With `c1ccc(-c2nc(C3CCN(Cc4ccc(-c5nc6ccccn6c5-c5cccs5)cc4)CC3)n[nH]2)nc1` [Example 17, 2-(4-{[4-(5-pyridin-2-yl-1,2,4-triazol-3-yl)piperidin-1-yl]methyl}phenyl)-3-(2-thienyl)imidazo[1,2-a]pyridine] as the molecule, how does the IC50 [1] read?
A: Its IC50 is < 1 µM.

Q: What about the IC50 (OvCAR3 cells) of the same molecule?
A: Its IC50 is < 10 µM.

Q: What about the IC50 (phosphorylated GSK3) of the same molecule?
A: Its IC50 is 1 to 10 µM.

Q: With `c1ccc(-c2c(-c3ccc(CN4CCC(c5n[nH]c(-c6ccccn6)n5)CC4)cc3)nc3ncccn23)cc1` [Example 1, 3-phenyl-2-(4-{[4-(5-pyridin-2-yl-1,2,4-triazol-3-yl)piperidin-1-yl]methyl}phenyl)imidazo[1,2-a]pyrimidine] as the molecule, how does the IC50 [1] read?
A: Its IC50 is < 1 µM.

Q: And the IC50 (OvCAR3 cells)?
A: Its IC50 is < 10 µM.

Q: What about the IC50 (phosphorylated GSK3) of the same molecule?
A: Its IC50 is 1 to 10 µM.

Q: How did the IC50 [1] turn out when `c1ccc(-c2nc(C3CCN(Cc4ccc(-c5nc6ncccn6c5-c5ccsc5)cc4)CC3)n[nH]2)nc1` [Example 34, 2-(4-{[4-(5-pyridin-2-yl-1,2,4-triazol-3-yl)piperidin-1-yl]methyl}phenyl)-3-(3-thienyl)imidazo[1,2-a]pyrimidine] was run?
A: Its IC50 is < 1 µM.

Q: And the IC50 (OvCAR3 cells)?
A: The IC50 was < 10 µM.

Q: What about the IC50 (phosphorylated GSK3) of the same molecule?
A: Its IC50 is < 1 µM.

Q: Which IC50 [1] does the source give for `c1ccc(-c2nc(C3CCN(Cc4ccc(-c5nc6ncccn6c5-c5nccs5)cc4)CC3)n[nH]2)nc1` [Example 39, 2-(4-{[4-(5-pyridin-2-yl-1,2,4-triazol-3-yl)piperidin-1-yl]methyl}phenyl)-3-(1,3-thiazol-2-yl)imidazo[1,2-a]pyrimidine] here?
A: The IC50 was < 1 µM.

Q: And the IC50 (OvCAR3 cells)?
A: The IC50 was < 10 µM.

Q: What about the IC50 (phosphorylated GSK3) of the same molecule?
A: The IC50 was 1 to 10 µM.

Q: How did the IC50 [1] turn out when `c1ccc(-c2c(-c3ccc(CN4CCC(c5cc(-c6ccccn6)n[nH]5)CC4)cc3)nc3ncccn23)cc1` [Example 30, 3-phenyl-2-(4-{[4-(3-pyridin-2-yl-pyrazol-5-yl)piperidin-1-yl]methyl}phenyl)imidazo[1,2-a]pyrimidine] was run?
A: Its IC50 is 1 to 10 µM.

Q: And the IC50 (OvCAR3 cells)?
A: The IC50 was < 10 µM.

Q: What about the IC50 (phosphorylated GSK3) of the same molecule?
A: Its IC50 is < 1 µM.

Q: How did the IC50 [1] turn out when `COc1ccc(-c2c(-c3ccc(CN4CCC(c5n[nH]c(-c6ccccn6)n5)CC4)cc3)nc3ccccn23)cc1` [Example 15, 3-(4-methoxyphenyl)-2-(4-{[4-(5-pyridin-2-yl-1,2,4-triazol-3-yl)piperidin-1-yl]methyl}phenyl)imidazo[1,2-a]pyridine] was run?
A: The IC50 was > 10 µM.

Q: And the IC50 (OvCAR3 cells)?
A: Its IC50 is > 10 µM.

Q: And the IC50 (phosphorylated GSK3)?
A: The IC50 was 1 to 10 µM.

Q: Which IC50 [1] does the source give for `c1ccc(-c2c(-c3ccc(CN4CCC(c5n[nH]c(-c6ccccn6)n5)CC4)cc3)nc3cnccn23)cc1` [Example 37, 3-phenyl-2-(4-{[4-(5-pyridin-2-yl-1,2,4-triazol-3-yl)piperidin-1-yl]methyl}phenyl)imidazo[1,2-a]pyrazine] here?
A: The IC50 was < 1 µM.

Q: What about the IC50 (OvCAR3 cells) of the same molecule?
A: Its IC50 is < 10 µM.

Q: What about the IC50 (phosphorylated GSK3) of the same molecule?
A: The IC50 was 1 to 10 µM.

Q: For `COc1nccn2c(-c3ccccc3)c(-c3ccc(CN4CCC(c5n[nH]c(-c6ccccn6)n5)CC4)cc3)nc12` [Example 27, 8-methoxy-3-phenyl-2-(4-{[4-(5-pyridin-2-yl-1,2,4-triazol-3-yl)piperidin-1-yl]methyl}phenyl)imidazo[1,2-a]pyrazine], which IC50 [1] is on record?
A: The IC50 was < 1 µM.

Q: What about the IC50 (OvCAR3 cells) of the same molecule?
A: The IC50 was < 10 µM.

Q: And the IC50 (phosphorylated GSK3)?
A: The IC50 was 1 to 10 µM.

Q: What does the source list for `Brc1ccc2nc(-c3ccc(CN4CCC(c5n[nH]c(-c6ccccn6)n5)CC4)cc3)c(-c3ccccc3)n2c1` [Example 6, 6-bromo-3-phenyl-2-(4-{[4-(5-pyridin-2-yl-1,2,4-triazol-3-yl)piperidin-1-yl]methyl}phenyl)imidazo[1,2-a]pyridine]?
A: IC50 [1]: < 1 µM; IC50 (OvCAR3 cells): < 10 µM; IC50 (phosphorylated GSK3): 1 to 10 µM

Q: How did the IC50 [1] turn out when `Cc1cccn2c(-c3ccccc3)c(-c3ccc(CN4CCC(c5n[nH]c(-c6ccccn6)n5)CC4)cc3)nc12` [Example 8, 8-methyl-3-phenyl-2-(4-{[4-(5-pyridin-2-yl-1,2,4-triazol-3-yl)piperidin-1-yl]methyl}phenyl)imidazo[1,2-a]pyridine] was run?
A: The IC50 was < 1 µM.

Q: What about the IC50 (OvCAR3 cells) of the same molecule?
A: The IC50 was < 10 µM.

Q: And the IC50 (phosphorylated GSK3)?
A: The IC50 was 1 to 10 µM.

Q: Which IC50 [1] does the source give for `N#Cc1ccn2c(-c3ccccc3)c(-c3ccc(CN4CCC(c5n[nH]c(-c6ccccn6)n5)CC4)cc3)nc2c1` [Example 29, 3-phenyl-2-(4-{[4-(5-pyridin-2-yl-1,2,4-triazol-3-yl)piperidin-1-yl]methyl}phenyl)imidazo[1,2-a]pyridine-7-carbonitrile] here?
A: The IC50 was < 1 µM.

Q: And the IC50 (OvCAR3 cells)?
A: Its IC50 is < 10 µM.

Q: And the IC50 (phosphorylated GSK3)?
A: Its IC50 is < 1 µM.

Q: For `Clc1cnc2nc(-c3ccc(CN4CCC(c5n[nH]c(-c6ccccn6)n5)CC4)cc3)c(-c3ccccc3)n2c1` [Example 21, 6-chloro-3-phenyl-2-(4-{[4-(5-pyridin-2-yl-1,2,4-triazol-3-yl)piperidin-1-yl]methyl}phenyl)imidazo[1,2-a]pyrimidine], which IC50 [1] is on record?
A: The IC50 was < 1 µM.

Q: What about the IC50 (OvCAR3 cells) of the same molecule?
A: Its IC50 is < 10 µM.

Q: And the IC50 (phosphorylated GSK3)?
A: The IC50 was 1 to 10 µM.

Q: Which results are given for `c1ccc(-c2c(-c3ccc(CN4CCC(c5n[nH]c(-c6ccccn6)n5)CC4)cc3)nc3nccnn23)cc1` [Example 3, 7-phenyl-6-(4-{[4-(5-pyridin-2-yl-1H-1,2,4-triazol-3-yl)piperidin-1-yl]methyl}phenyl)imidazo[1,2-b][1,2,4]triazine]?
A: IC50 [1]: < 1 µM; IC50 (OvCAR3 cells): < 10 µM; IC50 (phosphorylated GSK3): < 1 µM

Q: `Fc1ccc(-c2c(-c3ccc(CN4CCC(c5n[nH]c(-c6ccccn6)n5)CC4)cc3)nc3ccccn23)cc1` [Example 9, 3-(4-fluorophenyl)-2-(4-{[4-(5-pyridin-2-yl-1,2,4-triazol-3-yl)piperidin-1-yl]methyl}phenyl)imidazo[1,2-a]pyridine] was tested. Which IC50 [1] did it give?
A: The IC50 was 1 to 10 µM.

Q: And the IC50 (OvCAR3 cells)?
A: Its IC50 is > 10 µM.

Q: What about the IC50 (phosphorylated GSK3) of the same molecule?
A: Its IC50 is 1 to 10 µM.
